Values of other authors, collected in US5360794A, “Disubstituted and deoxy disubstituted derivatives of α-D-mannofuranosides and β-L-gulofuranosides having anti-inflammatory and anti-proliferative activity” (Medicarb Inc., priority 1992, dated 1994).
Structures can show the parent of a compound that is named as a salt.

Tested on: rheumatoid arthritis
Conditions: late Phase III clinical trials; cited from earlier work

For `CN(C)CCCO[C@@H]1[C@H]2OC(C)(C)O[C@H]2O[C@@H]1[C@H](O)CO` [Amiprilose HCl, 1,2-O-isopropylidene-3-O-3'-(N', N'-dimethylaminopropyl)-α-D-glucofuranose], the “clinical utility in rheumatoid arthritis” value is listed as “demonstrated utility in managing the signs and symptoms of rheumatoid arthritis”.
